We go through 1 substance from patent US11325937B2, “Glycoside compound and preparation method therefor, composition, application, and intermediate” (SHANGHAI HUTCHISON PHARMACEUTICALS LIMITED, priority 2018, dated 2022).

The test system of experiment [1] is rats with middle cerebral artery occlusion (MCAO). The experiment can be described thus: Acute cerebral infarction model in rats with middle cerebral artery occlusion (MCAO). It is filed as in vivo, male SD rats. The settings on record: MCAO, after 3 days, FIGS. 11-13. The source says: After obtaining the active molecules that can promote the expression of VEGF-A mRNA in the animal model of inflammatory angiogenesis, a rat model of cerebral infarction was used for further verification. Following the method as described in Longa, E. Z., Longa, E. Z., Weinstein, P. R., Carlson, S. & Commin, R. Reversible middle cerebral artery occlusion without craniectomy in rats. [J]. Stroke, 1989. 1: 84-91, an acute cerebral infarction model was established in rats with middle cerebral artery occlusion (MCAO); and following the method as described in C. dela Torre, T. Fortin, G. A. S. Park, K. S. Butler, P. Kozlowski, B. A. Pappas, H. de Socarraz, J. K. Saunders and M. T. Richard. [J]. Brain Research, 1992. 582:186-195, a chronic cerebral ischemia model was established in rats with permanent ligation of bilateral common carotid arteries (2VO). The inhibition on cerebral infarction and neuroprotection for brain injury of the active molecules screened in Effect Example 2 were verified.
The control drugs were: Edaravone (purchased from Zhejiang Shengtong Biotechnology Co., Ltd.), Clopidogrel bisulfate (purchased from Wuhan Yuancheng Gongchuang Technology Co., Ltd.), and Salvianolate (purchased from Henan Provincial People's Hospital). Clopidogrel bisulfate is a platelet aggregation inhibitor, and Edaravone is a brain protectant (free radical scavenger). The MCAO model of rats was made by the thread occlusion method. The rats used in this effect example were male SD rats weighing 280-320 grams, purchased from Shanghai SLAC Laboratory Animal Co., Ltd. Five SD (Sprague Dawley) rats in each group were administered by intraperitoneal injection, 2 h before surgery, and every 24 h after modeling.
Three days later, the brain was taken, and the rat brain was stained with TTC (2,3,5-triphenyltetrazolium chloride, to detect the cell viability) and then photographed. Infarction rate (%)=(Non-infarction area of right brain section−non-infarction area of left brain section)/total area of brain section*100%. According to t tests, *P<0.05, **P<0.01, ***P<0.001 compared with the model group (MCAO). Infarction inhibition rate (%) at different doses=(infarction rate of model group-infarction rate of treatment group)/infarction rate of model group*100%. The infarction inhibition rate at different doses was plotted, and the ED50 of the drug was calculated.
Moreover, the body weight of the rats was recorded. The rate of body weight change was calculated according to a formula: Rate of body weight change (%)=(final weight-initial weight)/[…].
Three days after the acute cerebral infarction model was established in rats with MCAO, the test rats were scored for neurological function according to the Longa nerve scoring standard.
Three days after the acute cerebral infarction model of MCAO was established in rats, the intact brain tissue was taken out, olfactory bulb and the brain tissue that is 4 mm in front of the frontal pole was removed, and the immediately adjacent brain tissue of 2 mm thick was taken for water content measurement in the brain. The water content in brain tissue is calculated by the formula: (WW−DW)/WW×100%, where WW is the wet weight and DW is the dry weight. Three days after the acute cerebral infarction model of MCAO was established in rats, the brain tissue was stained with Evans Blue (EB, a commonly used azo dye preparation) to evaluate the permeability across the blood-brain barrier (BBB), so as to evaluate the integrity of blood-brain barrier. Both experiments were tested with the optimal dose of each drug previously determined: TG-028 (5 mg/Kg), Salvianolate (20 mg/Kg), Clopidogrel bisulfate (40 mg/Kg), Edaravone (40 mg/Kg).

Experiment [2] deals with HUVEC-12 endothelial cells. Kind of experiment: Migration of HUVEC-12 endothelial cells (scratch test). The settings on record: direct treatment of HUVEC-12, 24 h; compounds 10 μM, VEGF165 10 ng/mL; vs control medium. It is filed as cell-based, Human. Here is the method:
(§1) The experiment included seven groups. In Group 1, HUVEC-12 endothelial cells (purchased from Shanghai RongChuang Biotech Co., Ltd.) were treated directly with simple DMEM medium (Gibcol, Shanghai) containing 10% FBS (SERANA, Germany) (control). In Group 2, the endothelial cells were treated with the supernatant obtained 24 h after macrophages were cultured with DMEM medium containing 10% FBS (s-control). In Group 3, the endothelial cells cultured with DMEM medium containing 10% FBS were treated directly with TG-028 (TG-028, 10 μM). In Group 4, the endothelial cells were treated with the supernatant obtained after macrophages cultured with DMEM medium containing 10% FBS were treated and co-incubated with TG-028 for 24 h (s-TG-028, […]). In Group 5, the endothelial cells cultured with DMEM medium containing 10% FBS were treated directly with Cpd-18 (Salvianolate) (cpd-18, 10 μM). In Group 6, the endothelial cells were treated with the supernatant obtained after macrophages cultured with DMEM medium containing 10% FBS were treated and co-incubated with Cpd-18 (Salvianolate, 10 μM) for 24 h (s-cpd18). In Group 7, the endothelial cells cultured with DMEM medium containing 10% FBS were treated directly with VEGFD (Recombinant Human VEGF165, 10 ng/mL).
Human umbilical vein endothelial cells HUVEC-12 in logarithmic growth phase were counted, adjusted to a cell density of 5×10^5 cells/mL, and inoculated in 1 mL per well in a 6-well plate. The cells were conventionally cultured in an incubator to form monolayer cells of 90% confluency. The 6-well plate fully plated with cells was scratched perpendicular to the cell surface with a 200 μL pipette tip from one end to the other end of the well. The scratches were made transversely with the pipette tip being as perpendicular as possible to the bottom of the plate. […]
The medium was aspirated and the cells scratched off were washed off with PBS. […] The migration of endothelial cells was detected according to the cell scratch method and the relative migration rate was calculated. […]

In experiment [3] the test system is HUVEC-12 endothelial cells. Kind of experiment: Tubule formation of HUVEC-12 endothelial cells (Matrigel). It counts as cell-based, Human. The settings on record: direct treatment of HUVEC-12, 3 h; compounds 10 μM, VEGF165 10 ng/mL; vs control medium. Here is the method: as §1
A 96-well plate and sterile yellow pipette tip were stored overnight in a refrigerator at −20° C. The packed Matrigel was thawed overnight in a refrigerator at 4° C. before the experiment. On the following day, the Matrigel thawed was centrifuged for a few minutes. 60 μL per well of the pre-cooled Matrigel was added to a 96-well plate in an ice bath on a ultra-clean bench, and then allowed to stand in an incubator for 1 h. After Matrigel was solidified, HUVEC-12 cells in logarithmic growth phase were taken and adjusted for the cell density. The cells were well mixed with each group of medium at a density of 5×10^4 cells/well and inoculated into a 96-well plate. […] The tube-like structure was analyzed by ImageJ image-analysis software, and the tube formation ability was evaluated using number of master junction as a quantitative index.

Consider VEGF, for which the “inhibitory effect on cerebral infarction (in words)” value in experiment [1] is given as “can inhibit cerebral infarction in rats”. Besides, the “effect on migration of endothelial cells (in words)” value in experiment [2] is “significant effect on the migration of endothelial cells”. Moreover, in experiment [3], the “effect on tube formation of endothelial cells (in words)” value was “significant effect on the tube formation of endothelial cells”.
